Test system: not listed separately
Assay: Antiproliferative activity against human HL-60(TB) cells assessed as cell growth at 10^-5 M after 48 hrs by sulforhodamine B assay
Assay type: functional
Conditions: HL-60, 48 h, read-out: Activity

Compound | growth at 10 µM [%]
CNC(=O)c1cc(Oc2ccc3nc(NC(=O)Nc4ccc(F)cc4F)sc3c2)ccn1 | 98.3

Test system: HT-29
Assay: Antiproliferative activity against human HT-29 cells assessed as cell growth at 10^-5 M after 48 hrs by sulforhodamine B assay
Assay type: functional
Conditions: HT-29, 48 h, read-out: Activity

Compound | growth at 10 µM [%]
CNC(=O)c1cc(Oc2ccc3nc(NC(=O)Nc4ccc(F)cc4F)sc3c2)ccn1 | 58.8

Test system: not listed separately
Assay: Antiproliferative activity against human COLO205 cells assessed as cell growth at 10^-5 M after 48 hrs by sulforhodamine B assay
Assay type: functional
Conditions: COLO 205, 48 h, read-out: Activity

Compound | growth at 10 µM [%]
CNC(=O)c1cc(Oc2ccc3nc(NC(=O)Nc4ccc(F)cc4F)sc3c2)ccn1 | 87.1

Test system: KM12
Assay: Antiproliferative activity against human KM12 cells assessed as cell growth at 10^-5 M after 48 hrs by sulforhodamine B assay
Assay type: functional
Conditions: KM12, 48 h, read-out: Activity

Compound | growth at 10 µM [%]
CNC(=O)c1cc(Oc2ccc3nc(NC(=O)Nc4ccc(F)cc4F)sc3c2)ccn1 | 72.6

Test system: not listed separately
Assay: Antiproliferative activity against human HCT15 cells assessed as cell growth at 10^-5 M after 48 hrs by sulforhodamine B assay
Assay type: functional
Conditions: HCT-15, 48 h, read-out: Activity

Compound | growth at 10 µM [%]
CNC(=O)c1cc(Oc2ccc3nc(NC(=O)Nc4ccc(F)cc4F)sc3c2)ccn1 | 84

Test system: not listed separately
Assay: Antiproliferative activity against human HCT116 cells assessed as cell growth at 10^-5 M after 48 hrs by sulforhodamine B assay
Assay type: functional
Conditions: HCT-116, 48 h, read-out: Activity

Compound | growth at 10 µM [%]
CNC(=O)c1cc(Oc2ccc3nc(NC(=O)Nc4ccc(F)cc4F)sc3c2)ccn1 | 20.7

Test system: not listed separately
Assay: Cytotoxicity against human HCT116 cells assessed as growth inhibition at 10 uM after 2 days by MTT assay
Assay type: functional
Conditions: HCT-116, 48 h, read-out: GI

Compound | inhibition of growth at 10 µM [%]
CNC(=O)c1cc(Oc2ccc3nc(NC(=O)Nc4ccc(F)cc4F)sc3c2)ccn1 | 56.9

Test system: not listed separately
Assay: Antiproliferative activity against human HOP92 cells assessed as cell growth at 10^-5 M after 48 hrs by sulforhodamine B assay
Assay type: functional
Conditions: HOP-92, 48 h, read-out: Activity

Compound | growth at 10 µM [%]
CNC(=O)c1cc(Oc2ccc3nc(NC(=O)Nc4ccc(F)cc4F)sc3c2)ccn1 | -13.7

Test system: not listed separately
Assay: Antiproliferative activity against human OVCAR4 cells assessed as cell growth at 10^-5 M after 48 hrs by sulforhodamine B assay
Assay type: functional
Conditions: OVCAR-4, 48 h, read-out: Activity

Compound | growth at 10 µM [%]
CNC(=O)c1cc(Oc2ccc3nc(NC(=O)Nc4ccc(F)cc4F)sc3c2)ccn1 | 34.2

Test system: not listed separately
Assay: Antiproliferative activity against human SNB19 cells assessed as cell growth at 10^-5 M after 48 hrs by sulforhodamine B assay
Assay type: functional
Conditions: SNB-19, 48 h, read-out: Activity

Compound | growth at 10 µM [%]
CNC(=O)c1cc(Oc2ccc3nc(NC(=O)Nc4ccc(F)cc4F)sc3c2)ccn1 | 71.1

Test system: not listed separately
Assay: Cytotoxicity against human SKBR3 cells assessed as growth inhibition at 10 uM after 2 days by MTT assay
Assay type: functional
Conditions: SK-BR-3, 48 h, read-out: GI

Compound | inhibition of growth at 10 µM [%]
CNC(=O)c1cc(Oc2ccc3nc(NC(=O)Nc4ccc(F)cc4F)sc3c2)ccn1 | 61.6

Test system: NCI-H322M
Assay: Antiproliferative activity against human NCI-H322M cells assessed as cell growth at 10^-5 M after 48 hrs by sulforhodamine B assay
Assay type: functional
Conditions: read-out: Activity

Compound | growth at 10 µM [%]
CNC(=O)c1cc(Oc2ccc3nc(NC(=O)Nc4ccc(F)cc4F)sc3c2)ccn1 | 62.2

Test system: not listed separately
Assay: Antiproliferative activity against human Hs 578T cells assessed as cell growth at 10^-5 M after 48 hrs by sulforhodamine B assay
Assay type: functional
Conditions: read-out: Activity

Compound | growth at 10 µM [%]
CNC(=O)c1cc(Oc2ccc3nc(NC(=O)Nc4ccc(F)cc4F)sc3c2)ccn1 | 44.5

Test system: MDA-MB-468
Assay: Antiproliferative activity against human MDA-MB-468 cells assessed as cell growth at 10^-5 M after 48 hrs by sulforhodamine B assay
Assay type: functional
Conditions: MDA-MB-468, 48 h, read-out: Activity

Compound | growth at 10 µM [%]
CNC(=O)c1cc(Oc2ccc3nc(NC(=O)Nc4ccc(F)cc4F)sc3c2)ccn1 | 51.2

Test system: SK-MEL-2
Assay: Antiproliferative activity against human SK-MEL-2 cells assessed as cell growth at 10^-5 M after 48 hrs by sulforhodamine B assay
Assay type: functional
Conditions: SK-MEL-2, 48 h, read-out: Activity

Compound | growth at 10 µM [%]
CNC(=O)c1cc(Oc2ccc3nc(NC(=O)Nc4ccc(F)cc4F)sc3c2)ccn1 | 74.7

Test system: not listed separately
Assay: Antiproliferative activity against human DU145 cells assessed as cell growth at 10^-5 M after 48 hrs by sulforhodamine B assay
Assay type: functional
Conditions: DU-145, 48 h, read-out: Activity

Compound | growth at 10 µM [%]
CNC(=O)c1cc(Oc2ccc3nc(NC(=O)Nc4ccc(F)cc4F)sc3c2)ccn1 | 65.7

Test system: not listed separately
Assay: Antiproliferative activity against human RPMI8226 cells assessed as cell growth at 10^-5 M after 48 hrs by sulforhodamine B assay
Assay type: functional
Conditions: RPMI-8226, 48 h, read-out: Activity

Compound | growth at 10 µM [%]
CNC(=O)c1cc(Oc2ccc3nc(NC(=O)Nc4ccc(F)cc4F)sc3c2)ccn1 | 72.9

Test system: not listed separately
Assay: Antiproliferative activity against human HCC2998 cells assessed as cell growth at 10^-5 M after 48 hrs by sulforhodamine B assay
Assay type: functional
Conditions: HCC 2998, 48 h, read-out: Activity

Compound | growth at 10 µM [%]
CNC(=O)c1cc(Oc2ccc3nc(NC(=O)Nc4ccc(F)cc4F)sc3c2)ccn1 | 88.1

Test system: not listed separately
Assay: Cytotoxicity against human SKBR3 cells assessed as growth inhibition at 100 uM after 2 days by MTT assay
Assay type: functional
Conditions: SK-BR-3, 48 h, read-out: GI

Compound | inhibition of growth at 100 µM [%]
CNC(=O)c1cc(Oc2ccc3nc(NC(=O)Nc4ccc(F)cc4F)sc3c2)ccn1 | 79.5

Test system: not listed separately
Assay: Antiproliferative activity against human HOP62 cells assessed as cell growth at 10^-5 M after 48 hrs by sulforhodamine B assay
Assay type: functional
Conditions: HOP-62, 48 h, read-out: Activity

Compound | growth at 10 µM [%]
CNC(=O)c1cc(Oc2ccc3nc(NC(=O)Nc4ccc(F)cc4F)sc3c2)ccn1 | 60.7

Test system: not listed separately
Assay: Cytotoxicity against human HCT116 cells assessed as growth inhibition at 100 uM after 2 days by MTT assay
Assay type: functional
Conditions: HCT-116, 48 h, read-out: GI

Compound | inhibition of growth at 100 µM [%]
CNC(=O)c1cc(Oc2ccc3nc(NC(=O)Nc4ccc(F)cc4F)sc3c2)ccn1 | 86.3

Test system: not listed separately
Assay: Antiproliferative activity against human UACC62 cells assessed as cell growth at 10^-5 M after 48 hrs by sulforhodamine B assay
Assay type: functional
Conditions: UACC-62, 48 h, read-out: Activity

Compound | growth at 10 µM [%]
CNC(=O)c1cc(Oc2ccc3nc(NC(=O)Nc4ccc(F)cc4F)sc3c2)ccn1 | 65.1

Test system: not listed separately
Assay: Antiproliferative activity against human UO31 cells assessed as cell growth at 10^-5 M after 48 hrs by sulforhodamine B assay
Assay type: functional
Conditions: UO-31, 48 h, read-out: Activity

Compound | growth at 10 µM [%]
CNC(=O)c1cc(Oc2ccc3nc(NC(=O)Nc4ccc(F)cc4F)sc3c2)ccn1 | 91.4

Test system: not listed separately
Assay: Antiproliferative activity against human OVCAR8 cells assessed as cell growth at 10^-5 M after 48 hrs by sulforhodamine B assay
Assay type: functional
Conditions: OVCAR-8, 48 h, read-out: Activity

Compound | growth at 10 µM [%]
CNC(=O)c1cc(Oc2ccc3nc(NC(=O)Nc4ccc(F)cc4F)sc3c2)ccn1 | 45.1

Test system: MDA-MB-435
Assay: Antiproliferative activity against human MDA-MB-435 cells assessed as cell growth at 10^-5 M after 48 hrs by sulforhodamine B assay
Assay type: functional
Conditions: MDA-MB-435, 48 h, read-out: Activity

Compound | growth at 10 µM [%]
CNC(=O)c1cc(Oc2ccc3nc(NC(=O)Nc4ccc(F)cc4F)sc3c2)ccn1 | 62.5

Test system: SK-MEL-28
Assay: Antiproliferative activity against human SK-MEL-28 cells assessed as cell growth at 10^-5 M after 48 hrs by sulforhodamine B assay
Assay type: functional
Conditions: SK-MEL-28, 48 h, read-out: Activity

Compound | growth at 10 µM [%]
CNC(=O)c1cc(Oc2ccc3nc(NC(=O)Nc4ccc(F)cc4F)sc3c2)ccn1 | 52.1

Test system: not listed separately
Assay: Antiproliferative activity against human BT549 cells assessed as cell growth at 10^-5 M after 48 hrs by sulforhodamine B assay
Assay type: functional
Conditions: BT-549, 48 h, read-out: Activity

Compound | growth at 10 µM [%]
CNC(=O)c1cc(Oc2ccc3nc(NC(=O)Nc4ccc(F)cc4F)sc3c2)ccn1 | 100

Test system: T47D
Assay: Antiproliferative activity against human T47D cells assessed as cell growth at 10^-5 M after 48 hrs by sulforhodamine B assay
Assay type: functional
Conditions: read-out: Activity

Compound | growth at 10 µM [%]
CNC(=O)c1cc(Oc2ccc3nc(NC(=O)Nc4ccc(F)cc4F)sc3c2)ccn1 | 56.5

Test system: not listed separately
Assay: Antiproliferative activity against human Caki1 cells assessed as cell growth at 10^-5 M after 48 hrs by sulforhodamine B assay
Assay type: functional
Conditions: CAKI-1, 48 h, read-out: Activity

Compound | growth at 10 µM [%]
CNC(=O)c1cc(Oc2ccc3nc(NC(=O)Nc4ccc(F)cc4F)sc3c2)ccn1 | 88.4

Test system: NCI-H522
Assay: Antiproliferative activity against human NCI-H522 cells assessed as cell growth at 10^-5 M after 48 hrs by sulforhodamine B assay
Assay type: functional
Conditions: NCI-H522, 48 h, read-out: Activity

Compound | growth at 10 µM [%]
CNC(=O)c1cc(Oc2ccc3nc(NC(=O)Nc4ccc(F)cc4F)sc3c2)ccn1 | 68.7

Test system: not listed separately
Assay: Antiproliferative activity against human SF539 cells assessed as cell growth at 10^-5 M after 48 hrs by sulforhodamine B assay
Assay type: functional
Conditions: SF-539, 48 h, read-out: Activity

Compound | growth at 10 µM [%]
CNC(=O)c1cc(Oc2ccc3nc(NC(=O)Nc4ccc(F)cc4F)sc3c2)ccn1 | 61.7

Test system: not listed separately
Assay: Antiproliferative activity against human LOXIMVI cells assessed as cell growth at 10^-5 M after 48 hrs by sulforhodamine B assay
Assay type: functional
Conditions: LOX IMVI, read-out: Activity

Compound | growth at 10 µM [%]
CNC(=O)c1cc(Oc2ccc3nc(NC(=O)Nc4ccc(F)cc4F)sc3c2)ccn1 | 52.1

Test system: not listed separately
Assay: Antiproliferative activity against human SF268 cells assessed as cell growth at 10^-5 M after 48 hrs by sulforhodamine B assay
Assay type: functional
Conditions: SF-268, 48 h, read-out: Activity

Compound | growth at 10 µM [%]
CNC(=O)c1cc(Oc2ccc3nc(NC(=O)Nc4ccc(F)cc4F)sc3c2)ccn1 | 76.1

Test system: K562
Assay: Antiproliferative activity against human K562 cells assessed as cell growth at 10^-5 M after 48 hrs by sulforhodamine B assay
Assay type: functional
Conditions: K562, 48 h, read-out: Activity

Compound | growth at 10 µM [%]
CNC(=O)c1cc(Oc2ccc3nc(NC(=O)Nc4ccc(F)cc4F)sc3c2)ccn1 | 71.5

Test system: not listed separately
Assay: Antiproliferative activity against human SW620 cells assessed as cell growth at 10^-5 M after 48 hrs by sulforhodamine B assay
Assay type: functional
Conditions: SW-620, 48 h, read-out: Activity

Compound | growth at 10 µM [%]
CNC(=O)c1cc(Oc2ccc3nc(NC(=O)Nc4ccc(F)cc4F)sc3c2)ccn1 | 99.9

Test system: A498
Assay: Antiproliferative activity against human A498 cells assessed as cell growth at 10^-5 M after 48 hrs by sulforhodamine B assay
Assay type: functional
Conditions: A498, 48 h, read-out: Activity

Compound | growth at 10 µM [%]
CNC(=O)c1cc(Oc2ccc3nc(NC(=O)Nc4ccc(F)cc4F)sc3c2)ccn1 | 10.9

Test system: Malme-3M
Assay: Antiproliferative activity against human MALME-3M cells assessed as cell growth at 10^-5 M after 48 hrs by sulforhodamine B assay
Assay type: functional
Conditions: read-out: Activity

Compound | growth at 10 µM [%]
CNC(=O)c1cc(Oc2ccc3nc(NC(=O)Nc4ccc(F)cc4F)sc3c2)ccn1 | 46.2
